Among the data in US12295959B2 (priority 2021, dated 2025) are IC50 and EC50 values, retold here.

The IC50 is the concentration needed to halve the response being measured. A lower IC50 goes with greater potency in that assay. The EC50 is the concentration at which the effect is half-maximal. High values mean a need for much substance, low ones an effect from little substance.

Bounds are passed on as bounds.

Assay [1] has as its target T1, 5-HT2C edited (accession number AAF35842.1) (Homo sapiens, UniProt P28335, I156V/I160V/N158S). The assay can be described thus: biochemical. It counts as binding.
Target sequence in this assay (P28335 33-458 I156V/N158S/I160V limits assumed): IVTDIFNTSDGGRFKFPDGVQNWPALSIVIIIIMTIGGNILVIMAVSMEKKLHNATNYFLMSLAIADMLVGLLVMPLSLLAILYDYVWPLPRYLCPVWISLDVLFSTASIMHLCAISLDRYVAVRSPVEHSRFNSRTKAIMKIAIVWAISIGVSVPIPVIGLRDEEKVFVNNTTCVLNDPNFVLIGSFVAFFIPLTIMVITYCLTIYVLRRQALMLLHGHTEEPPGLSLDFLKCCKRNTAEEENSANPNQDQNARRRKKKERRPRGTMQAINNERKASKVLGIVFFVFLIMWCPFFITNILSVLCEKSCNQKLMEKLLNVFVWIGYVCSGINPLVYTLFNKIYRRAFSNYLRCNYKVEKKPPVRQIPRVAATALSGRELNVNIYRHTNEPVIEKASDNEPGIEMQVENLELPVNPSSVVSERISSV
Assay [2] deals with T1, 5-HT2C edited (accession number AAF35842.1). The assay can be described thus: cell-based.
Target sequence in this assay (P28335 whole entry I156V/N158S/I160V, looked up): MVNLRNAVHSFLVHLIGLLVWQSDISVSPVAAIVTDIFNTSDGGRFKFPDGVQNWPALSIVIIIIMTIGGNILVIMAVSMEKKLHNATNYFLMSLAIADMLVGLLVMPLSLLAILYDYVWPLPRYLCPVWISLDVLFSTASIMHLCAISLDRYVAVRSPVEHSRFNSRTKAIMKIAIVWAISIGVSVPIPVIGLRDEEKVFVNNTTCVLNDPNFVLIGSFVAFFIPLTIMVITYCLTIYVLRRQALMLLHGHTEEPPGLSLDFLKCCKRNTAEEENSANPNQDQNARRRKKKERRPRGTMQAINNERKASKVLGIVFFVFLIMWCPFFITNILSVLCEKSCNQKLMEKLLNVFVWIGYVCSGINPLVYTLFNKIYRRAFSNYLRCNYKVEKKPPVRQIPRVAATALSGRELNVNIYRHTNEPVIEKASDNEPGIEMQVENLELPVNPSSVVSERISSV
The target of another assay is 5-HT2C (Homo sapiens, UniProt P28335, I156V/I160V/N158S). The assay is described as follows: cell-based.
Chain of 5-HT2C (P28335 33-458 I156V/N158S/I160V limits assumed): as the sequence (P28335 33-458 I156V/N158S/I160V limits assumed) above

Regarding `c1ccc(Oc2ccc3c4c([nH]c3c2)CCNCC4)cc1` [Compound 11, 8-phenoxy-1,2,3,4,5,6-hexahydroazepino[4,5-b]indole], the IC50 in assay [1] is 101 to 1000 nM; against 5-HT2C, greater than 10000 nM. The same compound displayed an EC50 in assay [2] of 101 to 1000 nM.
In assay [1], `Cn1c2c(c3ccc(OCc4ccc(F)cc4)cc31)CCNCC2` [Compound 9, 8-((4-fluorobenzyl)oxy)-6-methyl-1,2,3,4,5,6-hexahydroazepino[4,5-b]indole] yielded an IC50 of 101 to 1000 nM. This compound also registered an EC50 in assay [2] of 1000 to 10000 nM.
The like results for `CN1CCc2[nH]c3cc(OCc4ccccc4)ccc3c2CC1` [Compound 1, 8-(benzyloxy)-3-methyl-1,2,3,4,5,6-hexahydroazepino[4,5-b]indole] were, in that order, 101 to 1000 nM and 1000 to 10000 nM.
For the compound `c1ccc(COc2ccc3c4c([nH]c3c2)CCNCC4)cc1` [Compound 3, 8-(benzyloxy)-1,2,3,4,5,6-hexahydroazepino[4,5-b]indole], the IC50 in assay [1] fell in the range of 101 to 1000 nM. This compound also showed an EC50 in assay [2] of 101 to 1000 nM.
Consider `Cn1c2c(c3ccc(OCc4ccccc4)cc31)CCNCC2` [Compound 5, 8-(benzyloxy)-6-methyl-1,2,3,4,5,6-hexahydroazepino[4,5-b]indole], for which the IC50 in assay [1] is 101 to 1000 nM; on 5-HT2C, greater than 10000 nM. In addition, the EC50 in assay [2] was 1000 to 10000 nM.
The like results for `CN1CCc2c(n(C)c3cc(OCc4ccc(F)cc4)ccc23)CC1` [Compound 10, 8-((4-fluorobenzyl)oxy)-3,6-dimethyl-1,2,3,4,5,6-hexahydroazepino[4,5-b]indole] were, in that order, 101 to 1000 nM, 1000 to 10000 nM and 1000 to 10000 nM.
As to `CN1CCc2[nH]c3c(Br)ccc(OCc4ccccc4)c3c2CC1` [Compound 29, 10-(benzyloxy)-7-bromo-3-methyl-1,2,3,4,5,6-hexahydroazepino[4,5-b]indole], the IC50 in assay [1] was less than 10 nM; at 5-HT2C, 10 to 100 nM. In assay [2], this compound came in with an EC50 greater than 10000 nM.
For `Fc1ccc(COc2ccc3c4c([nH]c3c2)CCNCC4)cc1` [Compound 7, 8-((4-fluorobenzyl)oxy)~1,2,3,4,5,6-hexahydroazepino[4,5-b]indole], in that order: 101 to 1000 nM, greater than 10000 nM and 101 to 1000 nM.
The like results for `CN1CCc2c(n(C)c3cc(Oc4ccc(F)cc4)ccc23)CC1` [Compound 18, 8-(4-fluorophenoxy)-3,6-dimethyl-1,2,3,4,5,6-hexahydroazepino[4,5-b]indole] were, in that order, 101 to 1000 nM, 1000 to 10000 nM and 101 to 1000 nM.
As to `CN1CCc2[nH]c3cc(Oc4ccccc4)ccc3c2CC1` [Compound 12, 3-methyl-8-phenoxy-1,2,3,4,5,6-hexahydroazepino[4,5-b]indole], the IC50 in assay [1] was 101 to 1000 nM; against 5-HT2C, greater than 10000 nM. Further, the EC50 in assay [2] lay in the range of 1000 to 10000 nM.
As for `c1ccc(COc2ccc3[nH]c4c(c3c2)CCNCC4)cc1` [Compound 25, 9-(benzyloxy)-1,2,3,4,5,6-hexahydroazepino[4,5-b]indole], the IC50 in assay [1] is 10 to 100 nM; at 5-HT2C, greater than 10000 nM. The compound also had a concentration giving a half-maximal response (EC50) in assay [2] of 10 to 100 nM.
In turn, `Cn1c2c(c3c(Oc4ccc(F)cc4)cccc31)CCNCC2` [Compound 23, 10-(4-fluorophenoxy)-6-methyl-1,2,3,4,5,6-hexahydroazepino[4,5-b]indole] gave an IC50 in assay [1] of 10 to 100 nM. In addition, in assay [2], the EC50 fell in the range of 101 to 1000 nM.
Turning to `CN1CCc2[nH]c3cc(OCc4ccc(F)cc4)ccc3c2CC1` [Compound 8, 8-((4-fluorobenzyl)oxy)-3-methyl-1,2,3,4,5,6-hexahydroazepino[4,5-b]indole], the IC50 in assay [1] fell in the range of 101 to 1000 nM; on 5-HT2C, 1000 to 10000 nM. The same compound returned an EC50 in assay [2] of 1000 to 10000 nM.
`Cn1c2c(c3ccc(Oc4ccc(F)cc4)cc31)CCNCC2` [Compound 17, 8-(4-fluorophenoxy)-6-methyl-1,2,3,4,5,6-hexahydroazepino[4,5-b]indole] showed an IC50 in assay [1] of 10 to 100 nM. This compound also returned an EC50 in assay [2] of 1000 to 10000 nM.
Consider `Cn1c2c(c3ccc(Oc4ccccc4)cc31)CCNCC2` [Compound 13, 6-methyl-8-phenoxy-1,2,3,4,5,6-hexahydroazepino[4,5-b]indole], for which the IC50 in assay [1] was 101 to 1000 nM. In assay [2], this compound returned an EC50 of 1000 to 10000 nM.
In turn, `Fc1ccc(Oc2ccc3c4c([nH]c3c2)CCNCC4)cc1` [Compound 15, 8-(4-fluorophenoxy)-1,2,3,4,5,6-hexahydroazepino[4,5-b]indole] yielded an IC50 in assay [1] of 101 to 1000 nM. Also, in assay [2], the 50% effective concentration (EC50) lay in the range of 101 to 1000 nM.
`c1ccc(COc2cccc3[nH]c4c(c23)CCNCC4)cc1` [Compound 4, 10-(benzyloxy)-1,2,3,4,5,6-hexahydroazepino[4,5-b]indole] came in with a 50% inhibitory concentration (IC50) in assay [1] of less than 10 nM. The EC50 in assay [2] is less than 10 nM.
For `CN1CCc2c(n(C)c3cc(OCc4ccccc4)ccc23)CC1` [Compound 6, 8-(benzyloxy)-3,6-dimethyl-1,2,3,4,5,6-hexahydroazepino[4,5-b]indole], the IC50 in assay [1] was in the range of 101 to 1000 nM. The same compound yielded an EC50 in assay [2] of 1000 to 10000 nM.
With `CN1CCc2[nH]c3cccc(OCc4ccccc4)c3c2CC1` [Compound 2, 10-(benzyloxy)-3-methyl-1,2,3,4,5,6-hexahydroazepino[4,5-b]indole], the IC50 in assay [1] is less than 10 nM; against 5-HT2C it was 10 to 100 nM. Also, the EC50 in assay [2] lay within 10 to 100 nM.
For `CN1CCc2[nH]c3c(OCc4ccccc4)cccc3c2CC1` [Compound 28, 7-(benzyloxy)-3-methyl-1,2,3,4,5,6-hexahydroazepino[4,5-b]indole], the IC50 (in assay [1]; at 5-HT2C) was 101 to 1000 nM each time. In addition, the 50% effective concentration (EC50) in assay [2] is 101 to 1000 nM.
As to `CN1CCc2[nH]c3cc(Oc4ccc(F)cc4)ccc3c2CC1` [Compound 16, 8-(4-fluorophenoxy)-3-methyl-1,2,3,4,5,6-hexahydroazepino[4,5-b]indole], the IC50 is 101 to 1000 nM in assay [1] and greater than 10000 nM against 5-HT2C. Besides, the half-maximal effective concentration (EC50) in assay [2] was in the range of 1000 to 10000 nM.
With `Fc1ccc(Oc2cccc3[nH]c4c(c23)CCNCC4)cc1` [Compound 21, 10-(4-fluorophenoxy)-1,2,3,4,5,6-hexahydroazepino[4,5-b]indole], the IC50 in assay [1] was less than 10 nM. The compound also came in with an EC50 in assay [2] of less than 10 nM.
Take `c1ccc(Oc2cccc3[nH]c4c(c23)CCNCC4)cc1` [Compound 20, 10-phenoxy-1,2,3,4,5,6-hexahydroazepino[4,5-b]indole]: the IC50 in assay [1] was less than 10 nM. In assay [2], this compound returned an EC50 of less than 10 nM.
Take `CN1CCc2c(n(C)c3cc(Oc4ccccc4)ccc23)CC1` [Compound 14, 3,6-dimethyl-8-phenoxy-1,2,3,4,5,6-hexahydroazepino[4,5-b]indole]: the IC50 in assay [1] is 101 to 1000 nM; at 5-HT2C it was greater than 10000 nM. Moreover, in assay [2], the EC50 fell in the range of 101 to 1000 nM.
Regarding `c1ccc(COc2cccc3c4c([nH]c23)CCNCC4)cc1` [Compound 27, 7-(benzyloxy)-1,2,3,4,5,6-hexahydroazepino[4,5-b]indole], the IC50 in assay [1] was in the range of 101 to 1000 nM. This compound also had an EC50 in assay [2] of 101 to 1000 nM.
Consider `CN1CCc2[nH]c3cccc(Oc4ccc(F)cc4)c3c2CC1` [Compound 22, 10-(4-fluorophenoxy)-3-methyl-1,2,3,4,5,6-hexahydroazepino[4,5-b]indole], for which the values for the IC50 (in assay [1]; on 5-HT2C) were 10 to 100 nM and greater than 10000 nM, respectively. For the same compound, the EC50 in assay [2] is less than 10 nM.
For the compound `CN1CCc2c(n(C)c3cccc(Oc4ccc(F)cc4)c23)CC1` [Compound 24, 10-(4-fluorophenoxy)-3,6-dimethyl-1,2,3,4,5,6-hexahydroazepino[4,5-b]indole], the IC50 (in assay [1]; against 5-HT2C) was 10 to 100 nM in each case. This compound also registered an EC50 in assay [2] of 101 to 1000 nM.
`Cn1c2c(c3c(OCc4ccccc4)cccc31)CCNCC2` [Compound 19, 10-(benzyloxy)-6-methyl-1,2,3,4,5,6-hexahydroazepino[4,5-b]indole] had an IC50 in assay [1] of 10 to 100 nM. In assay [2], the EC50 is 10 to 100 nM.
Take `CN1CCc2[nH]c3ccc(OCc4ccccc4)cc3c2CC1` [Compound 26, 9-(benzyloxy)-3-methyl-1,2,3,4,5,6-hexahydroazepino[4,5-b]indole]: the IC50 (in assay [1]; at 5-HT2C) was 101 to 1000 nM in each case. In addition, in assay [2], the EC50 is 101 to 1000 nM.
